Numbers after ± are expanded uncertainties.
What was measured:
[1] = Crystal; DTA
[2] = Molar enthalpy of transition or fusion; conditions: Crystal; DSC

Normal melting temperature [1]: 219.20 ± 1 °C
Molar enthalpy of transition or fusion [2]: 6.55 ± 0.956 kcal/mol
SMILES: O=C(O)C=Cc1ccc(O)cc1 [3-(4-hydroxyphenyl)-2-propenoic acid]
